# Laboratory results taken from US10927136B2, “Phosphorus prodrugs of pyrazolo-substituted pyrimidine sGC stimulators” (Cyclerion Therapeutics, Inc., priority 2016, dated 2021).
# Experiments:
# [1] = Dog PK following IV and oral dosing; type: in vivo, male Beagle dogs; design: half-life / clearance / AUC(0-inf): dose or concentration left out as unconfirmed
# Procedure: PK in dogs was determined following IV and oral dosing.
# For the oral (PO) experiments, two groups of 5 male Beagle dogs each were used. […] IV doses were administered through an indwelling catheter in the cephalic vein. Following dose administration, the catheter was flushed with ca. 3 mL of saline. Oral suspension doses were delivered to the stomach using a syringe and gavage tube. Following oral dosage administration, the gavage tube was flushed with approximately 10 mL of water to ensure complete delivery of the full dose.
# Plasma and urine samples were collected as follows: for the PO experiments, samples were collected at 15 min, 30 min, 1 hour, 2 hours, 3 hours, 4 hours, 6 hours, 8 hours, 24 hours, 32 hours and 48 hours post-dosing; for the IV experiments, samples were collected at 2 min, 5 min, 15 min, 30 min, 1 hour, 2 hours, 3 hours, 4 hours, 6 hours, 8 hours, 24 hours, 32 hours and 48 hours post-dosing. Blood samples (2 mL) were collected from the jugular, cephalic or saphenous veins. These samples were kept on ice until processed for plasma. Blood samples were centrifuged at 3200 rpm for 10 minutes at approximately 5° C. within 1 hour of collection. Plasma was split into two approximately equal aliquots, and directly transferred to a 96-well plate tube (1.1 mL). Plug caps were placed on the tubes and the tubes frozen at approximately −70° C. and stored until analysis.
# Urine was collected from each animal by diversion from a urine collection pan placed beneath the cage of each animal into an appropriate collection container, surrounded by wet ice or ice packs throughout the collection. The total volume of urine collected at each interval was measured and recorded and a single 10 mL aliquot was collected and stored frozen at approximately −70° C. until analysis.
# Plasma and urine were collected and analyzed for the presence of Compound I-1 and Intermediate 3 derived from Compound I-1.
# (§1) Intermediate 3, Compound I-1 and the internal standard (IS, Compound Z) were extracted from plasma by precipitation. Samples were analyzed using liquid chromatography (LC) with tandem mass spectrometric detection (MS/MS) using electrospray ionization. The standard curve range was from 0.1 to 400 ng/mL.
# (§2) Thawed plasma samples and the required amount of plasma for standards, blanks and dilutions. Prepared crash solution: room temp ACN containing 1 ng/mL Compound Z as Internal Standard. Created a 1× mixed (Intermediate 3 and Compound I-1) standard curve by diluting the 100× stocks (5 uL of each 100× standard into 490 uL of plasma). Transferred 50 uL of each plasma sample/dilution, standard, or blank. Added 200 uL of the crash solution containing IS. Vortexed for 5 minutes. Centrifuged at 16,000 g at room temperature for 10 min. Transferred 200 uL of each supernatant to a plate. Dried under nitrogen in a TurboVap at 55° C. Resuspended each sample in 50 uL of 0.1% Formic Acid, covered and vortexed. Analyzed by LC-MS/MS.
# [2] = Rat PK following intravenous and oral dosing; type: in vivo, male Sprague-Dawley rats
# Procedure: PK in rats was determined following intravenous and oral dosing.
# For the intravenous (IV) and oral (PO) experiments, two groups of 4 male Sprague-Dawley rats each were used. The PO group was dosed with 3.0 mg/kg of Compound I-1 formulated as a solution in phosphate buffered saline (PBS). The IV group was dosed with 1.0 mg/kg of Compound I-1 formulated as a solution in phosphate buffered saline (PBS). IV doses were administered through an indwelling catheter in the jugular vein. Following dose administration, the catheter was flushed with ca. 0.25 mL of saline. PO doses were delivered to the stomach using a syringe and gavage tube. Following oral dosage administration, the gavage tube was flushed with approximately 0.5 mL of water to ensure complete delivery of the full dose.
# Plasma samples were collected as follows: for the IV and PO experiments, samples were collected at 5 min, 15 min, 30 min, 1 hour, 2 hours, 4 hours, 6 hours, 8 hours, 12 hours, 16 hours, 20 hours and 24 hours, post-dosing. Blood samples (0.25 mL) were collected from the jugular vein. These samples were kept on ice until processed for plasma. Blood samples were centrifuged at 3200 rpm for 5 minutes at approximately 5° C. within 1 hour of collection. Plasma was directly transferred to a 96-well plate tube (0.125 mL). Plug caps were placed on the tubes and the tubes frozen at approximately −70° C. and stored until analysis.
# Plasma was collected and analyzed for the presence of Compound I-1 and Intermediate 3 derived from Compound I-1.
# as §1
# as §2, with “495” for “490”, “Re-suspended” for “Resuspended”, “LC-MSMS.” for “LC-MS/MS.”
# [3] = male, Beagle, plasma, dog, Compound I-1 0.36 mpk IV in PBS, analyte Compound I-1
# [4] = male, Sprague-Dawley, plasma, Compound I-1 1 mg/kg IV in PBS, analyte Compound I-1
# [5] = male, Beagle, plasma, dog PO, Intermediate 3 in PEG400 capsules (2 mg/kg)
"Vol. of Dist ([1]; dog, Compound I-1 0.36 mpk IV in PBS, analyte Compound I-1)","average conversion to the parent ([1]; dog, Compound I-1 administered IV)","AUC compared with parent dosed in PEG ([1]; dog, Compound I-1 dosed IV in PBS)","prodrug observed in plasma ([1]; dog, after PO administration of Compound I-1)","prodrug found in urine ([1]; dog, after dosing of Compound I-1)","half-life ([1]; male, Beagle, dog, plasma, iv, Compound I-1 IV in PBS, analyte Compound I-1)","AUC(0-inf) [1, 3]","Cmax [1, 3]","clearance [1, 3]",prodrug in plasma samples ([2]; following PO dosing of Compound I-1 3.0 mg/kg),"AUC(0-inf) [2, 4]","Cmax [2, 4]","clearance [2, 4]","half-life ([2]; male, Sprague-Dawley, plasma, iv, 1 mg/kg, Compound I-1 1 mg/kg IV in PBS, analyte Compound I-1)","Cmax/C24 (ratio) ([1]; dog PO, Intermediate 3 in PEG400 capsules (2 mg/kg))","AUC [1, 5]","Cmax [1, 5]","Tmax [1, 5]","bioavailability ([1]; male, Beagle, plasma, dog PO, Intermediate 3 in PEG400 capsules (2 mg/kg), read-out: Bioavailability (% F))",SMILES
0.09 ± 0.03 L/kg,95%,comparable AUC to Intermediate 3,Low levels,Negligible amounts,~15 min,1550 ± 601 ng·h/mL,5110 ± 2150 ng/mL,8.3 ± 3.1 mL/min/kg,not observed in any plasma samples,549 ng·h/mL,2780 ± 2450 ng/mL,34.3 mL/min/kg,~9 min,–,–,–,–,–,O=P(O)(O)OC(CNc1nc(-c2cc(-c3ccon3)n(Cc3ccccc3F)n2)ncc1F)(C(F)(F)F)C(F)(F)F [Compound I-1]
–,–,–,–,–,–,–,–,–,–,–,–,–,–,3.6 ± 1.1 ratio,5190 ± 1410 ng·h/mL,307 ± 116 ng/mL,90 ± 72 min,64 ± 12.5%,OC(CNc1nc(-c2cc(-c3ccon3)n(Cc3ccccc3F)n2)ncc1F)(C(F)(F)F)C(F)(F)F [Intermediate 3]
